Where a name gives a salt, the structure may show the parent alone.
What was measured:
Assay type in all cases: cell-based, human
[1] = tested on: HCT-116 (colorectal carcinoma) cell line; test: CellTiter-Glo luminescent cell viability assay, HCT-116; settings: Homo sapiens; for EC50: HCT-116 cell line, 72 h incubation, CellTiter-Glo, read-out: EC50, growth inhibition of HCT-116; for viability at 4 µM: HCT-116, compound at 4 μM; for viability at 4 µM / viability at 10 µM: 72 h; for viability at 10 µM: HCT-116, compound at 10 μM
Method in brief: (§1)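 72 h compound exposure, 37 °C, 5% CO2, 10% FBS medium; ATP luminescence read after 30 min RT equilibration. Viability as % of H2O/DMSO diluent control; EC50 = dose giving 50% of control signal. Duplicate points minimum.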

[2] = tested on: HepG2 (hepatocellular carcinoma) cell line; test: CellTiter-Glo luminescent cell viability assay, HepG2; settings: Homo sapiens; for EC50: HepG2 cell line, 72 h incubation, CellTiter-Glo, read-out: EC50, growth inhibition of HepG2; for viability at 4 µM / viability at 10 µM: HepG2, HepG, 72 h; for viability at 4 µM: compound at 4 μM; for viability at 10 µM: compound at 10 μM
Method in brief: (§2)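 Cells were cultured at 37 °C, 5% CO2 with 10% FBS; adherent lines were plated overnight, suspension MOLM-14 plated 1 h before dosing. Compounds in H2O or DMSO were added at various concentrations for 72 h, and viability was read by luminescence. EC50 is the dose reducing signal to 50% of diluent control.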

[3] = tested on: 786-O (renal adenocarcinoma) cell line; test: CellTiter-Glo luminescent cell viability assay, 786-O; settings: Homo sapiens, 786-0; for EC50: 786-O cell line, 72 h incubation, CellTiter-Glo, read-out: EC50, growth inhibition of 786-O; for viability at 4 µM / viability at 10 µM: 786-O, 72 h; for viability at 4 µM: compound at 4 μM; for viability at 10 µM: compound at 10 μM
Method in brief: as §1

[4] = tested on: Huh7 (hepatocellular carcinoma) cell line; test: CellTiter-Glo luminescent cell viability assay, Huh7; settings: Homo sapiens, Huh-7; for EC50: Huh7 cell line, 72 h incubation, CellTiter-Glo, read-out: EC50, growth inhibition of Huh7; for viability at 4 µM: Huh7, compound at 4 μM; for viability at 4 µM / viability at 10 µM: 72 h; for viability at 10 µM: Huh7, compound at 10 μM
Method in brief: as §2

[5] = tested on: MOLM-14 (acute myeloid leukemia) cell line; test: CellTiter-Glo luminescent cell viability assay, MOLM-14; settings: Homo sapiens; for EC50: MOLM-14 cell line, 72 h incubation, CellTiter-Glo, read-out: EC50, growth inhibition of MOLM-14; for viability at 4 µM: MOLM-14, compound at 4 μM; for viability at 4 µM / viability at 10 µM: 72 h; for viability at 10 µM: MOLM-14, compound at 10 μM
Method in brief: as §2

[6] = tested on: A375 (malignant melanoma) cell line; test: CellTiter-Glo luminescent cell viability assay, A375; settings: Homo sapiens, A-375; for EC50: A375 cell line, 72 h incubation, CellTiter-Glo, read-out: EC50, growth inhibition of A375; for viability at 4 µM: A375, compound at 4 μM; for viability at 4 µM / viability at 10 µM: 72 h; for viability at 10 µM: A375, compound at 10 μM
Method in brief: as §1

Row | EC50 [1] [µM] | EC50 [2] [µM] | EC50 [3] [µM] | EC50 [4] [µM] | EC50 [5] [µM] | EC50 [6] [µM] | SMILES | viability at 4 µM [1] [%] | viability at 10 µM [1] [%] | viability at 4 µM [2] [%] | viability at 10 µM [2] [%] | viability at 4 µM [3] [%] | viability at 10 µM [3] [%] | viability at 4 µM [4] [%] | viability at 10 µM [4] [%] | viability at 4 µM [5] [%] | viability at 10 µM [5] [%] | viability at 4 µM [6] [%] | viability at 10 µM [6] [%]
1 | 5 to 10 | 0.5 to 5 | 5 to 10 | 0.5 to 5 | 0.5 to 5 | 5 to 10 | Clc1ccc(CNc2cc(N3CCC(Oc4cnccn4)CC3)c3ccccc3n2)cc1 [Compound 2958, 2-(4-chlorobenzylamino)-4-[4-(pyrazin-2-yloxy)piperidin-1-yl]quinoline hydrochloride] |  |  |  |  |  |  |  |  |  |  |  | 
2 | 5 to 10 | 0.5 to 5 | 0.5 to 5 | 0.5 to 5 | 0.5 to 5 | 0.5 to 5 | O[C@@H]1CCN(c2cc(NCc3ccc(Cl)cc3)nc3ccccc23)C1 [Compound 2988, (3R) 2-(4-chlorobenzylamino)-4-(3-hydroxypyrrolidin-1-yl)quinoline hydrochloride] |  |  |  |  |  |  |  |  |  |  |  | 
3 | 0.5 to 5 | 0.5 to 5 | 0.5 to 5 | 0.5 to 5 | 0.5 to 5 | 0.5 to 5 | Clc1ccc(CNc2cc(N3CC[C@@H](Oc4ccccc4)C3)c3ccccc3n2)cc1 [Compound 3012, (3R) 2-(4-chlorobenzylamino)-4-[3-(phenoxy)pyrrolidin-1-yl]quinoline hydrochloride] |  |  |  |  |  |  |  |  |  |  |  | 
4 | 0.5 to 5 | 0.5 to 5 | 0.5 to 5 | 0.5 to 5 | 0.5 to 5 | 0.5 to 5 | Clc1ccc(CNc2cc(N3CC[C@@H](Oc4ccccn4)C3)c3ccccc3n2)cc1 [Compound 3026, (3R) 2-(4-chlorobenzylamino)-4-[3-(pyridin-2-yloxy)pyrrolidin-1-yl]quinoline hydrochloride] |  |  |  |  |  |  |  |  |  |  |  | 
5 | 0.5 to 5 | 0.5 to 5 | 5 to 10 | 0.5 to 5 | 0.5 to 5 | 0.5 to 5 | O[C@H]1CCN(c2cc(NCc3ccc(Cl)cc3)nc3ccccc23)C1 [Compound 3060, (3S) 2-(4-chlorobenzylamino)-4-(3-hydroxypyrrolidin-1-yl)-quinoline hydrochloride] |  |  |  |  |  |  |  |  |  |  |  | 
6 | 0.5 to 5 | 0.5 to 5 | 0.5 to 5 | 0.5 to 5 | 0.5 to 5 | 0.5 to 5 | Clc1ccc(CNc2cc(N3CC[C@H](Oc4ccccn4)C3)c3ccccc3n2)cc1 [Compound 3098, (3S) 2-(4-chlorobenzylamino)-4-[3-(pyridin-2-yloxy)pyrrolidin-1-yl]quinoline hydrochloride] |  |  |  |  |  |  |  |  |  |  |  | 

The remaining lines, values behind:

Row | SMILES | EC50 [1] [µM] | EC50 [2] [µM] | EC50 [3] [µM] | EC50 [4] [µM] | EC50 [5] [µM] | EC50 [6] [µM] | viability at 4 µM [1] [%] | viability at 10 µM [1] [%] | viability at 4 µM [2] [%] | viability at 10 µM [2] [%] | viability at 4 µM [3] [%] | viability at 10 µM [3] [%] | viability at 4 µM [4] [%] | viability at 10 µM [4] [%] | viability at 4 µM [5] [%] | viability at 10 µM [5] [%] | viability at 4 µM [6] [%] | viability at 10 µM [6] [%]
7 | Clc1ccc(CNc2cc(N3CCC(Oc4ccccc4)CC3)c3ccccc3n2)cc1 [Compound 2940, 2-(4-chlorobenzylamino)-4-(4-phenoxypiperidin-1-yl)-quinoline hydrochloride] | 0.5 to 5 | 0.5 to 5 | 0.5 to 5 | 5 to 10 | 0.5 to 5 | 5 to 10 |  |  |  |  |  |  |  |  |  |  |  | 
8 | N#Cc1c(NCc2ccc(Cl)cc2)nc2ccccc2c1N1CCC(Oc2ccc(F)cc2)CC1 [Compound 2942CN, 2-(4-chlorobenzylamino)-3-cyano-4-[4-(4-fluorophenoxy)piperidin-1-yl]quinoline] |  |  |  |  |  |  | 91 | 75.1 | 99.1 | 75.3 | 87.7 | 81.3 | 94.3 | 87.9 | 98.2 | 88.1 | 101 | 94.9
9 | Cc1cccc(OC2CCN(c3cc(NCc4ccc(Cl)cc4)nc4ccccc34)CC2)c1 [Compound 2946, 2-(4-chlorobenzylamino)-4-[4-(m-tolyloxy)piperidin-1-yl]quinoline hydrochloride] | 5 to 10 | 5 to 10 | 5 to 10 | 5 to 10 | 5 to 10 | 0.5 to 5 |  |  |  |  |  |  |  |  |  |  |  | 
10 | Clc1ccc(CNc2cc(N3CCC(Oc4ccncc4)CC3)c3ccccc3n2)cc1 [Compound 2950, 2-(4-chlorobenzylamino)-4-[4-(pyridin-4-yloxy)piperidin-1-yl]quinoline hydrochloride] | 0.5 to 5 | 0.5 to 5 | 0.5 to 5 | 0.5 to 5 | 0.5 to 5 | 0.5 to 5 |  |  |  |  |  |  |  |  |  |  |  | 
11 | Cc1nccnc1OC1CCN(c2c(C#N)c(NCc3ccc(Cl)cc3)nc3ccccc23)CC1 [Compound 2970CN, 2-(4-chlorobenzylamino)-3-cyano-4-{4-[(3-methylpyrazin-2-yl)oxy]piperidin-1-yl}quinoline] |  |  |  |  |  |  | 70.5 | 47 | 87.8 | 63.3 | 89.4 | 79.8 | 63.7 | 53.4 | 92 | 61.2 | 91.9 | 80.8
12 | Cc1cc(OC2CCN(c3c(C#N)c(NCc4ccc(Cl)cc4)nc4ccccc34)CC2)no1 [Compound 2978CN, 2-(4-chlorobenzylamino)-3-cyano-4-{4-[(5-methylisoxazol-3-yl)oxy]piperidin-1-yl}quinoline] |  |  |  |  |  |  | 88.2 | 50.1 | 94.5 | 78.1 | 96.9 | 89.3 | 87 | 74.2 | 115 | 77.5 | 93.1 | 86.8
13 | Cc1cc(Nc2nc3ccccc3c(N3CCC(NC(C)(C)C)CC3)c2C#N)ccc1Nc1nccc(-c2cccnc2)n1 [Compound 3131CN, 2-[4-(4-(pyridin-3-yl)pyrimidin-2-ylamino)-3-methylphenylamino]-3-cyano-4-(4-tert-butylaminopiperidin-1-yl)quinoline] |  |  |  |  |  |  | 63.9 | 0.1 | 80.6 | 0.1 | 42.6 | 0.1 | 87 | 69.8 | 80.1 | 7.3 | 79.4 | 0.1
14 | N#Cc1c(NCc2ccc(Cl)cc2)nc2ccccc2c1N1CCCC(Oc2ccccc2)C1 (stereo not drawn) [Compound 3206CN, 2-(4-chlorobenzylamino)-3-cyano-4-(3-phenoxypiperidin-1-yl)quinoline] |  |  |  |  |  |  | 97.9 | 91.2 | 72.4 | 65 | 79.9 | 75.1 | 107 | 95.1 | 96 | 107 | 111 | 104
15 | COc1ccc(OC2CCN(c3c(C#N)c(NCc4ccc(Cl)cc4)nc4ccccc34)CC2)cc1 [Compound 3224CN, 2-(4-chlorobenzylamino)-3-cyano-4-[4-(4-methoxyphenoxy)piperidin-1-yl]quinoline] |  |  |  |  |  |  | 89.8 | 65.1 | 91.6 | 70 | 96.3 | 88.9 | 116 | 90 | 112 | 94.6 | 96 | 91.7

— patent US10577362B2, “Substituted 2, 4-diamino-quinoline derivatives for use in the treatment of proliferative diseases” (GENOSCIENCE PHARMA, priority 2016, dated 2020)
